Assay results reported in patent US20150080337A1, “N-CYCLOALKYL-N-[(TRISUBSTITUTEDSILYLPHENYL)METHYLENE]-(THIO)CARBOXAMIDE DERIVATIVES” (BAYER CROPSCIENCE, priority 2012, published 2015).
Blank lines part the entries; values can stand above or below the molecule they belong to.

What was measured:
Puccinia recondita = experiment: In vivo test on Puccinia recondita (brown rust); conditions: 500 ppm of active ingredient; wheat plants sprayed 24 hours before contamination; grading 12 days after contamination vs control plants
Procedure: (§1) The active ingredients tested are prepared by homogenization in a mixture of acetone/tween/DMSO, and then diluted with water to obtain the desired active material concentration.
(§2) Wheat plants (“Scipion” variety), sown in starter cups on a 50/50 peat soil pozzolana substrate and grown at 22° C., are treated at the 1 leaf stage (10 cm height) by spraying with the active ingredient prepared as described above. Plants, used as controls, are treated with the mixture of acetone/tween/DMSO/water not containing the active material.
(§3) After 24 hours, the plants are contaminated by spraying the leaves with an aqueous suspension of Puccinia recondita spores (100 000 spores per mL). The spores are collected from an infected plant and are suspended in water containing 2.5 mL/L of Tween 80 at 10%. The contaminated wheat plants are incubated for 24 hours at 20° C. and at 100% relative humidity, and then for 10 days at 20° C. and at 70-80% relative humidity.
(§4) Grading (% of efficacy) is carried out 12 days after the contamination, in comparison with the control plants.
Under these conditions, good (at least 70%) to excellent (at least 90%) protection is observed at a dose of 500 ppm of active ingredient with the following compounds from table C: […]

[1] = log P by HPLC on reversed-phase column (C 18), EEC Directive 79/831 Annex V.A8; type: physicochemical; conditions: HPLC C 18, 40° C., 0.1% aqueous formic acid and acetonitrile, gradient 10% to 90% acetonitrile
Procedure: In table 1, the log P values were determined in accordance with EEC Directive 79/831 Annex V.A8 by HPLC (High Performance Liquid Chromatography) on a reversed-phase column (C 18), using the method described below:
Temperature: 40° C.; Mobile phases: 0.1% aqueous formic acid and acetonitrile; linear gradient from 10% acetonitrile to 90% acetonitrile.
Calibration was carried out using unbranched alkan-2-ones (comprising 3 to 16 carbon atoms) with known log P values (determination of the log P values by the retention times using linear interpolation between two successive alkanones). lambda-max-values were determined using UV-spectra from 200 nm to 400 nm and the peak values of the chromatographic signals.
In table 2, M+H (Apcl+) and log P are defined as for table 1.

Sphaerotheca fuliginea = experiment: In vivo test on Sphaerotheca fuliginea (cucurbits powdery mildew); conditions: 500 ppm of active ingredient; gherkin plants sprayed 24 hours before contamination; grading 12 days after contamination vs control plants
Procedure: The active ingredients tested are prepared by homogenization in a mixture of acetone/tween/DMSO and then diluted with water to obtain the desired active material concentration.
Gherkin plants (“Vert petit de Paris” variety), sown in starter cups on a 50/50 peat soil-pozzolana substrate and grown at 24° C., are treated at the Z11 cotyledon stage by spraying with the active ingredient prepared as described above. Plants, used as controls, are treated with the mixture of acetone/tween/DMSO/water not containing the active material.
After 24 hours, the plants are contaminated by spraying the cotyledons with an aqueous suspension of Sphaerotheca fuliginea spores (100 000 spores per mL). The spores are collected from infected plants. The contaminated gherkin plants are incubated at about 20° C. and at 70-80% relative humidity.
as §4
Under these conditions, good (at least 70%) to total protection is observed at a dose of 500 ppm of active ingredient with the following compounds from table A: […]

Septoria tritici = experiment: In vivo preventive test on Septoria tritici (wheat); conditions: 500 ppm of active ingredient; wheat plants sprayed 24 hours before contamination; grading 24 days after contamination vs control plants
Procedure: as §1, §2
After 24 hours, the plants are contaminated by spraying the leaves with an aqueous suspension of cryopreserved Septoria tritici spores (500 000 spores per mL). The contaminated wheat plants are incubated for 72 hours at 18° C. and at 100% relative humidity, and then for 21 days at 90% relative humidity.
Grading (% of efficacy) is carried out 24 days after the contamination, in comparison with the control plants.
Under these conditions, good (at least 70%) to total protection is observed at a dose of 500 ppm of active ingredient with the following compounds from table F: […]

Uromyces appendiculatus = experiment: In vivo preventive test on Uromyces appendiculatus (bean rust); conditions: 500 ppm of active ingredient; bean plants sprayed 24 hours before contamination; grading 11 days after contamination vs control plants
Procedure: as §1
Bean plants (“Saxa” variety), sown in starter cups on a 50/50 peat soil pozzolana substrate and grown at 24° C., are treated at the 2 leaf stage (9 cm height) by spraying with the active ingredient prepared as described above. Plants, used as controls, are treated with the mixture of acetone/tween/DMSO/water not containing the active material.
as §3, with “of Uromyces appendiculatus” for “of Puccinia recondita”, “spores (150” for “spores (100”, “from” for “from an”, “infected plants” for “infected plant”, “contaminated bean” for “contaminated wheat”
Grading (% of efficacy) is carried out 11 days after the contamination, in comparison with the control plants.
Under these conditions, good (at least 70%) to total protection is observed at a dose of 500 ppm of active ingredient with the following compounds from table G: […]

[2] = Table 1, compounds of formula (I)
[3] = Table 2, compounds of formula (II)

logP [1, 2]: 4.88
SMILES: Cn1nc(C(F)F)c(C(=O)N(Cc2ccccc2[Si](C)(C)c2ccccc2)C2CC2)c1Cl [I.5]
Efficacy (Puccinia recondita): 83%
Efficacy (Sphaerotheca fuliginea): 79%

logP [1, 2]: 4.25
SMILES: COc1ccc([Si](C)(C)c2ccccc2CN(C(=O)c2c(C(F)F)nn(C)c2Cl)C2CC2)cn1 [I.39]

logP [1, 2]: 5.19
SMILES: Cc1cc(C(=O)N(Cc2ccccc2[Si](C)(C)c2cccs2)C2CC2)c(C)o1 [I.35]

SMILES: C[Si](C)(c1cccs1)c1ccccc1CNC1CC1 [II.6, N-{2-[dimethyl(2-thienyl)silyl]benzyl}cyclopropanamine]
chromatographic logP [1, 3]: 1.76

logP [1, 2]: 4.41
SMILES: Cn1cc(C(=O)N(Cc2ccccc2[Si](C)(C)c2ccccc2)C2CC2)c(C(F)F)n1 [I.3]
Efficacy (Puccinia recondita): 83%
Efficacy (Septoria tritici): 80%
Efficacy (Uromyces appendiculatus): 93%
Efficacy (Sphaerotheca fuliginea): 93%

logP [1, 2]: 5.62
SMILES: Cn1cc(C(=O)N(Cc2ccccc2[Si](C)(C)c2ccc(Oc3ccccc3)cc2)C2CC2)c(C(F)F)c1 [I.23]

logP [1, 2]: 4.81
SMILES: CCc1nn(C)c(F)c1C(=O)N(Cc1ccccc1[Si](C)(C)c1ccccc1)C1CC1 [I.2]
Efficacy (Puccinia recondita): 83%
Efficacy (Sphaerotheca fuliginea): 100%

SMILES: CC1CC1NCc1ccccc1[Si](C)(C)c1ccccc1 (stereo not shown) [II.7]
logP [1, 3]: 2.70

logP [1, 2]: 4.78
SMILES: Cn1nc(C(F)F)c(C(=O)N(Cc2ccccc2[Si](C)(C)c2ccccc2)C2CC2)c1F [I.4]
Efficacy (Puccinia recondita): 92%
Efficacy (Septoria tritici): 100%
Efficacy (Uromyces appendiculatus): 100%
Efficacy (Sphaerotheca fuliginea): 100%

SMILES: Cc1nc(C(F)F)c(C(=O)N(Cc2ccccc2[Si](C)(C)c2ccc(-c3ccccc3)cc2)C2CC2)s1 [I.17]
logP [1, 2]: 5.93

logP [1, 2]: 4.61
SMILES: Cn1nc(C(F)F)c(C(=O)N(Cc2ccccc2[Si](C)(C)c2cccs2)C2CC2)c1F [I.33]
Efficacy (Septoria tritici): 100%
Efficacy (Uromyces appendiculatus): 100%
Efficacy (Sphaerotheca fuliginea): 100%

logP [1, 2]: 5.31
SMILES: Cc1nc(C(F)F)c(C(=O)N(Cc2ccccc2[Si](C)(C)c2cccc3ccccc23)C2CC2)s1 [I.30]

logP [1, 2]: 5.19
SMILES: Cn1nc(C(F)F)c(C(=O)N(Cc2ccccc2[Si](C)(C)c2ccc(Cl)cc2)C2CC2)c1F [I.6]
Efficacy (Puccinia recondita): 94%
Efficacy (Uromyces appendiculatus): 100%
Efficacy (Sphaerotheca fuliginea): 100%

SMILES: Cc1cc(C(=O)N(Cc2ccccc2[Si](C)(C)c2ccc(-c3ccccc3)cc2)C2CC2)c(C)o1 [I.15]
logP [1, 2]: 6.39

logP [1, 2]: 4.81
SMILES: Cn1cc(C(=O)N(Cc2ccccc2[Si](C)(C)c2ccc(Cl)cc2)C2CC2)c(C(F)F)n1 [I.7]
Efficacy (Puccinia recondita): 78%
Efficacy (Uromyces appendiculatus): 86%
Efficacy (Sphaerotheca fuliginea): 70%

logP [1, 2]: 4.83
SMILES: Cn1cc(C(=O)N(Cc2ccccc2[Si](C)(C)c2cccc3ccccc23)C2CC2)c(C(F)F)n1 [I.26]

logP [1, 2]: 5.81
SMILES: C[Si](C)(c1ccc(Cl)cc1)c1ccccc1CN(C(=O)c1ccsc1I)C1CC1 [I.11]

logP [1, 2]: 5.81
SMILES: Cc1nc(C(F)F)c(C(=O)N(Cc2ccccc2[Si](C)(C)c2ccc(Oc3ccccc3)cc2)C2CC2)s1 [I.24]

SMILES: C[Si](C)(c1ccccc1)c1ccccc1CNC1CC1 [II.1, N-{2-[dimethyl(phenyl)silyl]benzyl}cyclopropanamine]
chromatographic logP [1, 3]: 1.95

SMILES: C[Si](C)(c1ccccc1CNC1CC1)c1cccc2ccccc12 [II.5, N-{2-[dimethyl(1-naphthyl)silyl]benzyl}cyclopropanamine]
chromatographic logP [1, 3]: 2.11

logP [1, 2]: 5.28
SMILES: C[Si](C)(c1cccs1)c1ccccc1CN(C(=O)c1ccsc1I)C1CC1 [I.34]

SMILES: Cn1nc(C(F)F)c(C(=O)N(Cc2ccccc2[Si](C)(C)c2ccc(-c3ccccc3)cc2)C2CC2)c1F [I.13]
logP [1, 2]: 5.71

SMILES: Cn1cc(C(=O)N(Cc2ccccc2[Si](C)(C)c2ccc(-c3ccccc3)cc2)C2CC2)c(C(F)F)c1 [I.18]
logP [1, 2]: 5.68

logP [1, 2]: 5.19
SMILES: Cn1cc(C(=O)N(Cc2ccccc2[Si](C)(C)c2ccc(Cl)cc2)C2CC2)c(C(F)F)c1 [I.10]

logP [1, 2]: 6.33
SMILES: Cc1cc(C(=O)N(Cc2ccccc2[Si](C)(C)c2ccc(Oc3ccccc3)cc2)C2CC2)c(C)o1 [I.21]

SMILES: Cn1cc(C(=O)N(Cc2ccccc2[Si](C)(C)c2ccc(-c3ccccc3)cc2)C2CC2)c(C(F)F)n1 [I.14]
logP [1, 2]: 5.36

logP [1, 2]: 4.13
SMILES: COc1ccc([Si](C)(C)c2ccccc2CN(C(=O)c2c(C(F)F)nn(C)c2F)C2CC2)cn1 [I.38]

SMILES: C[Si](C)(c1ccc(-c2ccccc2)cc1)c1ccccc1CNC1CC1 [II.3, N-{2-[biphenyl-4-yl(dimethyl)silyl]benzyl}cyclopropanamine]
chromatographic logP [1, 3]: 2.39

logP [1, 2]: 6.36
SMILES: C[Si](C)(c1ccc(Oc2ccccc2)cc1)c1ccccc1CN(C(=O)c1ccsc1I)C1CC1 [I.22]

SMILES: C[Si](C)(c1ccc(-c2ccccc2)cc1)c1ccccc1CN(C(=O)c1ccsc1I)C1CC1 [I.16]
logP [1, 2]: 6.39

logP [1, 2]: 4.59
SMILES: Cn1cc(C(=O)N(Cc2ccccc2[Si](C)(C)c2cccs2)C2CC2)c(C(F)F)c1 [I.37]

logP [1, 2]: 5.31
SMILES: Cc1nc(C(F)F)c(C(=O)N(Cc2ccccc2[Si](C)(C)c2ccc(Cl)cc2)C2CC2)s1 [I.12]

SMILES: COc1ccc([Si](C)(C)c2ccccc2CNC2CC2)cn1 [II.8, N-{2-[(6-methoxypyridin-3-yl)(dimethyl)silyl]benzyl}cyclopropanamine]
chromatographic logP [1, 3]: 1.86

logP [1, 2]: 5.19
SMILES: Cn1cc(C(=O)N(Cc2ccccc2[Si](C)(C)c2cccc3ccccc23)C2CC2)c(C(F)F)c1 [I.28]

logP [1, 2]: 4.24
SMILES: Cn1cc(C(=O)N(Cc2ccccc2[Si](C)(C)c2cccs2)C2CC2)c(C(F)F)n1 [I.31]
Efficacy (Puccinia recondita): 75%
Efficacy (Septoria tritici): 96%
Efficacy (Uromyces appendiculatus): 96%
Efficacy (Sphaerotheca fuliginea): 100%

logP [1, 2]: 4.72
SMILES: Cn1nc(C(F)F)c(C(=O)N(Cc2ccccc2[Si](C)(C)c2cccs2)C2CC2)c1Cl [I.32]
Efficacy (Uromyces appendiculatus): 71%

SMILES: C[Si](C)(c1ccc(Cl)cc1)c1ccccc1CNC1CC1 [II.2, N-{2-[(4-chlorophenyl)(dimethyl)silyl]benzyl}cyclopropanamine]
chromatographic logP [1, 3]: 2.07

logP [1, 2]: 5.78
SMILES: Cc1cc(C(=O)N(Cc2ccccc2[Si](C)(C)c2ccc(Cl)cc2)C2CC2)c(C)o1 [I.9]

logP [1, 2]: 4.74
SMILES: Cc1nc(C(F)F)c(C(=O)N(Cc2ccccc2[Si](C)(C)c2cccs2)C2CC2)s1 [I.36]

logP [1, 2]: 5.87
SMILES: Cc1cc(C(=O)N(Cc2ccccc2[Si](C)(C)c2cccc3ccccc23)C2CC2)c(C)o1 [I.27]

SMILES: C[Si](C)(c1ccc(Oc2ccccc2)cc1)c1ccccc1CNC1CC1 [II.4, N-{2-[dimethyl(4-phenoxyphenyl)silyl]benzyl}cyclopropanamine]
chromatographic logP [1, 3]: 2.42
